From PubChem BioAssay AID330 (DTP/NCI, 2004) come the findings set out here.

The test relates to P388 leukemia ip, CD2F1 mice, survival T/C. The experiment in a line: NCI In Vivo Anticancer Drug Screen. Data for tumor model P388 Leukemia (intraperitoneal) in CD2F1 (CDF1) mice. The settings on record: endpoint: median survival time, higher = longer survival. The procedure, abridged:
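Mice carrying the transplanted tumor received test compound or vehicle. Survival was recorded in each group, and the value is the treated-group measurement divided by that of the vehicle-treated control group.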

Where [1] appears, read: dose: 50.0 mg/kg/injection, schedule: Q04DX003 (ip), vehicle: saline with Tween-80.
Where [2] appears, read: dose: 50.0 mg/kg/injection, schedule: Q01DX009 (ip), vehicle: Klucel (hydroxypropylcellulose) (HPC).
The mark [3] stands for this setting: dose: 100.0 mg/kg/injection, schedule: Q01DX009 (ip), vehicle: saline with Tween-80.
[4] abbreviates: dose: 200.0 mg/kg/injection, schedule: Q01DX009 (ip), vehicle: saline with Tween-80.
The mark [5] stands for this setting: dose: 400.0 mg/kg/injection, schedule: Q01DX009 (ip), vehicle: saline with Tween-80.
The mark [6] stands for this setting: dose: 100.0 mg/kg/injection, schedule: Q04DX003 (ip), vehicle: Klucel (hydroxypropylcellulose) (HPC).
Setting [7] is: dose: 200.0 mg/kg/injection, schedule: Q04DX003 (ip), vehicle: Klucel (hydroxypropylcellulose) (HPC).
Setting [8] is: dose: 400.0 mg/kg/injection, schedule: Q04DX003 (ip), vehicle: Klucel (hydroxypropylcellulose) (HPC).
Setting [9] is: dose: 50.0 mg/kg/injection, schedule: Q01DX009 (ip), vehicle: saline with Tween-80.

Several values for one entry are separate records, joined by “and”; a condition that tells them apart may be missing. Equal values may be shown once. Inconclusive results and toxic doses are left out.

For `COc1cccc2c1C(=O)c1c(O)c3c(c(O)c1C2=O)CC(O)(C(C)=O)CC3OC1CC(OC(=O)c2ccc([N+](=O)[O-])cc2)C(OC(=O)c2ccc([N+](=O)[O-])cc2)C(C)O1` (stereo unspecified), the T/C reads like this: (dose: 3.13 mg/kg/injection, schedule: Q04DX003 (ip), vehicle: distilled water + Tween-80) 100 % of control; (dose: 3.13 mg/kg/injection, schedule: Q04DX003 (ip), vehicle: saline with Tween-80) 100 % of control and 101 % of control; (dose: 6.25 mg/kg/injection, schedule: Q04DX003 (ip), vehicle: distilled water + Tween-80) 108 % of control; (dose: 6.25 mg/kg/injection, schedule: Q04DX003 (ip), vehicle: saline with Tween-80) 104 % of control and 100 % of control; (dose: 12.5 mg/kg/injection, schedule: Q04DX003 (ip), vehicle: distilled water + Tween-80) 101 % of control; (dose: 12.5 mg/kg/injection, schedule: Q04DX003 (ip), vehicle: saline with Tween-80) 101 % of control and 95 % of control. In addition, the T/C is 95 % of control (dose: 25.0 mg/kg/injection, schedule: Q04DX003 (ip), vehicle: distilled water + Tween-80); 101 % of control and 100 % of control (dose: 25.0 mg/kg/injection, schedule: Q04DX003 (ip), vehicle: saline with Tween-80); 156 % of control (dose: 50.0 mg/kg/injection, schedule: Q04DX003 (ip), vehicle: distilled water + Tween-80); 95 % of control and 100 % of control under setting [1].
For the molecule `COc1cccc(CSC(=N)N)c1`, the T/C was 109 % of control (dose: 12.5 mg/kg/injection, schedule: Q01DX009 (ip), vehicle: Klucel (hydroxypropylcellulose) (HPC)); 99 % of control (dose: 25.0 mg/kg/injection, schedule: Q01DX009 (ip), vehicle: Klucel (hydroxypropylcellulose) (HPC)); 100 % of control and 110 % of control under setting [2].
Regarding `N#CC(C(=O)N1CCCC1)=C(S)S`, the T/C by setting is: under setting [3], 100 % of control; under setting [4], 100 % of control; under setting [5], 100 % of control.
Turning to `CN(C)P(=S)(N(C)C)N1CCOCC1`, the T/C under setting [1] was 104 % of control; the T/C (dose: 100.0 mg/kg/injection, schedule: Q04DX003 (ip), vehicle: saline with Tween-80) is 88 % of control; the T/C (dose: 200.0 mg/kg/injection, schedule: Q04DX003 (ip), vehicle: saline with Tween-80) was 96 % of control.
Turning to `CCC(=O)Sc1ccccc1C(=O)Nc1ccc(Cl)cc1`, the T/C was 121 % of control and 86 % of control under setting [3]; 97 % of control under setting [4].
Consider `Cc1ccc2[nH]c(C)c(C(=O)c3cccnc3)c2c1`, for which the T/C reads like this: under setting [6], 92 % of control; under setting [7], 91 % of control; under setting [8], 110 % of control.
As for `C[n+]1c(/C=C/c2ccc([N+](=O)[O-])cc2)ccc2ccccc21`, the T/C is 100 % of control (dose: 3.3 mg/kg/injection, schedule: Q01DX009 (ip), vehicle: saline sonified); 111 % of control (dose: 6.5 mg/kg/injection, schedule: Q01DX009 (ip), vehicle: saline sonified); 111 % of control (dose: 12.5 mg/kg/injection, schedule: Q01DX009 (ip), vehicle: saline sonified).
In the case of `[Cl][Hg][c]1ccccc1N=Nc1ccccc1I`, the T/C was 101 % of control (dose: 12.5 mg/kg/injection, schedule: Q01DX009 (ip), vehicle: saline with Tween-80); 96 % of control (dose: 25.0 mg/kg/injection, schedule: Q01DX009 (ip), vehicle: saline with Tween-80); 113 % of control and 98 % of control under setting [9]; 122 % of control and 94 % of control under setting [3].
Turning to `Cc1nnc(NC/C=C/c2ccccc2)s1`, the T/C is 100 % of control (dose: 60.0 mg/kg/injection, schedule: Q01DX005 (ip), vehicle: saline with Tween-80); 96 % of control (dose: 120.0 mg/kg/injection, schedule: Q01DX005 (ip), vehicle: saline with Tween-80); 95 % of control (dose: 240.0 mg/kg/injection, schedule: Q01DX005 (ip), vehicle: saline with Tween-80).
As to `CN(C(=O)C(Cl)Cl)c1ccc(-c2csc(Cc3ccccc3)n2)cc1`, the T/C is 101 % of control under setting [6], 99 % of control under setting [7] and 97 % of control under setting [8].
On to `COC(OC)C(C)(C)NC(C)(C)C`, for which the T/C (dose: 50.0 mg/kg/injection, schedule: Q01DX009 (ip), vehicle: saline) was 104 % of control and the T/C (dose: 100.0 mg/kg/injection, schedule: Q01DX009 (ip), vehicle: saline) was 100 % of control.
Consider `CC(/C=C/C(=O)NO)=C\C(C)C(=O)c1ccc(N(C)C)cc1` (stereo unspecified), for which the T/C (dose: 2.19 mg/kg/injection, schedule: Q01DX009 (ip), vehicle: Klucel (hydroxypropylcellulose) (HPC)) is 107 % of control; the T/C (dose: 4.38 mg/kg/injection, schedule: Q01DX009 (ip), vehicle: Klucel (hydroxypropylcellulose) (HPC)) was 114 % of control; the T/C (dose: 8.75 mg/kg/injection, schedule: Q01DX009 (ip), vehicle: Klucel (hydroxypropylcellulose) (HPC)) is 122 % of control and 96 % of control; the T/C (dose: 8.75 mg/kg/injection, schedule: Q01DX009 (ip), vehicle: saline with Tween-80) was 152 % of control; the T/C (dose: 17.5 mg/kg/injection, schedule: Q01DX009 (ip), vehicle: Klucel (hydroxypropylcellulose) (HPC)) is 91 % of control; the T/C (dose: 17.5 mg/kg/injection, schedule: Q01DX009 (ip), vehicle: saline with Tween-80) is 90 % of control.
For the molecule `N#Cc1sc(SCC(=O)O)c(-[n+]2ccccc2)c1N`, the T/C (dose: 25.0 mg/kg/injection, schedule: Q04DX002 (ip), vehicle: saline with Tween-80) is 95 % of control; the T/C (dose: 50.0 mg/kg/injection, schedule: Q04DX002 (ip), vehicle: saline with Tween-80) is 104 % of control; the T/C (dose: 100.0 mg/kg/injection, schedule: Q04DX002 (ip), vehicle: saline with Tween-80) is 99 % of control.
Take `CC(C)(C)OC(=O)N1CCc2c([nH]oc2=O)C1`: the T/C is, setting by setting: (dose: 50.0 mg/kg/injection, schedule: Q01DX009 (ip), vehicle: suspension in saline) 92 % of control; (dose: 100.0 mg/kg/injection, schedule: Q01DX009 (ip), vehicle: suspension in saline) 90 % of control; (dose: 200.0 mg/kg/injection, schedule: Q01DX009 (ip), vehicle: suspension in saline) 90 % of control.
In the case of `CCCCC(C)C(=O)/C=C/c1ccccc1` (stereo unspecified), the T/C reads like this: under setting [9], 107 % of control and 120 % of control; under setting [3], 108 % of control and 118 % of control; under setting [4], 120 % of control; under setting [5], 117 % of control.
As for `CCCCOc1ccc(-c2c(COC(=O)NC)c(COC(=O)NC)c(C)n2C)cc1`, for the setting “dose: 7.5 mg/kg/injection, schedule: Q01DX009 (ip), vehicle: distilled water + Tween-80”, the T/C is 120 % of control.
Take `O=C(NCc1ccccc1)C1C(=O)C(=O)N(Cc2ccccc2)C1=O` (stereo unspecified): the T/C was 105 % of control under setting [2]; 100 % of control (dose: 100.0 mg/kg/injection, schedule: Q01DX009 (ip), vehicle: Klucel (hydroxypropylcellulose) (HPC)); 107 % of control (dose: 200.0 mg/kg/injection, schedule: Q01DX009 (ip), vehicle: Klucel (hydroxypropylcellulose) (HPC)).
In the case of `CC[N+](C)(CC)CC(C)C1NS(=O)(=O)c2ccccc21` (stereo unspecified), the T/C by setting is: (dose: 25.0 mg/kg/injection, schedule: Q04DX003 (ip), vehicle: saline) 104 % of control; (dose: 50.0 mg/kg/injection, schedule: Q04DX003 (ip), vehicle: saline) 98 % of control; (dose: 100.0 mg/kg/injection, schedule: Q04DX003 (ip), vehicle: saline) 98 % of control and 100 % of control.
On to `BrN=C1C=CC(=NBr)C=C1`, for which the T/C was 100 % of control (2×) and 106 % of control (dose: 50.0 mg/kg/injection, schedule: Q01DX005 (ip), vehicle: saline with Tween-80); 101 % of control and 106 % of control and 91 % of control (dose: 100.0 mg/kg/injection, schedule: Q01DX005 (ip), vehicle: saline with Tween-80); 101 % of control and 106 % of control and 120 % of control (dose: 200.0 mg/kg/injection, schedule: Q01DX005 (ip), vehicle: saline with Tween-80); 89 % of control and 90 % of control (dose: 400.0 mg/kg/injection, schedule: Q01DX005 (ip), vehicle: saline with Tween-80).
In the case of `C=C(C)C(=O)O[C@H]1[C@H]2[C@H](OC(=O)[C@H]2C)[C@H](O)[C@@H](C)[C@@H]2C=CC(=O)[C@]21C`, the T/C is 118 % of control (dose: 7.5 mg/kg/injection, schedule: Q01DX009 (ip), vehicle: saline with Tween-80); 113 % of control (dose: 15.0 mg/kg/injection, schedule: Q01DX009 (ip), vehicle: saline with Tween-80); 124 % of control (dose: 30.0 mg/kg/injection, schedule: Q01DX009 (ip), vehicle: saline with Tween-80).
Take `COc1cc2c(c(OC)c1OC)-c1ccc(OC)c(=O)cc1C(NC(=O)CO)CC2` (stereo unspecified): the T/C by setting is: (dose: 0.16 mg/kg/injection, schedule: Q01DX009 (ip), vehicle: Klucel (hydroxypropylcellulose) (HPC)) 104 % of control and 111 % of control; (dose: 0.62 mg/kg/injection, schedule: Q01DX009 (ip), vehicle: Klucel (hydroxypropylcellulose) (HPC)) 153 % of control and 157 % of control.
